Results as given in paper PMC2365101, “Anti-Inflammatory Activity of (Polyphenolic)-Sulfonates and Their Sodium Salts in Rodents” (Metal-Based Drugs, 1998).

Columns and labels:
[1] = system: CF1 male mice, carrageenan induced edema; assay: Anti-inflammatory screen in mice (carrageenan induced foot edema); assay type: in vivo; details: for Percent of Control (induced edema): CF1 male mice, N=6
Source text: Few reports in the literature indicate interaction at these receptor sites other than by peptides or antibodies. […] Blocking these receptors is desirable because the entire inflammation cascade of events is triggered by the early release of TNFa and IL-1. […] Radioisotopes were obtained from New England Nuclear [Dupont, Boston, MA] and substrates and co- factors were obtained from Sigma Chemical Co. [St. Louis, MO]. […] Cell lines were obtained from American Type Culture Collection [Rockville, MD]. In Vivo Tests Anti-inflammatory screen in mice: Male CF male mice weighing 28-32g obtained from Jackson Lab. […] Evaluation of the induced edema was made by injecting 2% carrageenan in 0.9% saline into the plantar region of the foot. The opposite foot injected with 0.9% isotonic saline was used as a base line. […] Salmonella abortus equi [Lot # 69F4003] […] Drugs from 2 to 16 mg/kg, I.P. were administered 2 hr prior and 2 hr post-injection of the LPS and then subsequently for every 24 hr for the length ofthe animals' lives. Deaths were recorded every 12 hr and continued for 96 hr. […] In vitro TNFa andIL-1 Measurements and Cellular Regulation IC-21 mouse macrophages were maintained in RPMI-1640 + 10% FCS + P/S. After the cells had grown to confluency, E. coli LPS at 10 Ixg/ml was added to the medium. Agents were incubated at 12.5 to 100 µM final concentration for 18 hr. The medium (100 btl) was collected for TNFCt determinations. Interleukin-1 [IL-1] release was determined using P388D1 cells which were maintained in RPMI-1640 + 10% FCS + P/S. The L929 bioassay was used to quantitate the TNF and the IL-1 levels. The L929 mouse fibroblasts were grown in DMEM + 10% FCS + P/S to confluency in 96 well plates and incubated with 100 tl ofmedium from […] or P388D cells after 18 hr. The cells were stained with 0.2% crystal violet in 20% MeOH and read at 580 nm using a Molecular Devices scanner (SOFT-max program). High Affinity Binding to Receptors on L929-106 Cells Two laCi of 125I-TNFct (human recombinant, 30 mCi/tg New England Nuclear) or 125I-IL-1 (70-120[.t Ci/lxg,New England Nuclear) was added to confluency L929 cells for 90 min or 5 hr, respectively with 25, 50 and 100 tM of the test compounds 12]. The cells were washed repeatedly with isotonic saline, pH.7.2 and aliquots counted. Prostaglandin cylcooxygenase activity Mouse J774AI macrophages maintained in Dulbecco's modified Eagle's medium + 15% FCS + P/S. Cells (5 x 106) were incubated with agents (5 to 100 ].tM final concentration) and 3H-arachidonic acid (100 Ci/mol) for 60 min at 37C in a CO2 incubator. The reaction was terminated with 2N HCI, the mixture extracted 2 X with ether, and the organic layer evaporated.

[2] = system: IL-8 high affinity receptor on chinese hamster ovarian carcinoma K-1 cells; assay: 125I-IL-8 high affinity binding to chinese hamster ovarian carcinoma K-1 cells; details: for 125I-IL-8 binding, Percent of Control: N=6
[3] = molecular target: J774-A1 macrophage elastase; assay: Elastase activity in J774-A1 macrophages; assay type: biochemical, mouse
[4] = system: IL-1 release from P388D1 macrophages; assay: IL-1 release from P388D1 macrophages (L929 bioassay); assay type: cell-based, mouse; details: for IL-1 release, Percent of Control: over 18 hours, N=6; for reduction of IL-1 release: 25 and 50 μM, 18 hr
Source text: Few reports in the literature indicate interaction at these receptor sites other than by peptides or antibodies. […] Blocking these receptors is desirable because the entire inflammation cascade of events is triggered by the early release of TNFa and IL-1. […] Radioisotopes were obtained from New England Nuclear [Dupont, Boston, MA] and substrates and co- factors were obtained from Sigma Chemical Co. [St. Louis, MO]. […] Cell lines were obtained from American Type Culture Collection [Rockville, MD]. In Vivo Tests Anti-inflammatory screen in mice: Male CF male mice weighing 28-32g obtained from Jackson Lab. [Bar Harbor, […]] were used to screen agents at 8 or 16 mg/kg intraperitoneal [I.P.] x 2 administered 3 hr and 30 min prior to administering the irritant, according to Winter's protocol. Evaluation of the induced edema was made by injecting 2% carrageenan in 0.9% saline into the plantar region of the foot. The opposite foot injected with 0.9% isotonic saline was used as a base line. […] Salmonella abortus equi [Lot # 69F4003] […] Drugs from 2 to 16 mg/kg, I.P. were administered 2 hr prior and 2 hr post-injection of the LPS and then subsequently for every 24 hr for the length ofthe animals' lives. Deaths were recorded every 12 hr and continued for 96 hr. […] In vitro TNFa andIL-1 Measurements and Cellular Regulation IC-21 mouse macrophages were maintained in RPMI-1640 + 10% FCS + P/S. After the cells had grown to confluency, E. coli LPS at 10 Ixg/ml was added to the medium. Agents were incubated at 12.5 to 100 µM final concentration for 18 hr. The medium (100 btl) was collected for TNFCt determinations. Interleukin-1 [IL-1] release was determined using P388D1 cells which were maintained in RPMI-1640 + 10% FCS + P/S. The L929 bioassay was used to quantitate the TNF and the IL-1 levels. The L929 mouse fibroblasts were grown in DMEM + 10% FCS + P/S to confluency in 96 well plates and incubated with 100 tl ofmedium from […] or P388D cells after 18 hr. The cells were stained with 0.2% crystal violet in 20% MeOH and read at 580 nm using a Molecular Devices scanner (SOFT-max program). High Affinity Binding to Receptors on L929-106 Cells Two laCi of 125I-TNFct (human recombinant, 30 mCi/tg New England Nuclear) or 125I-IL-1 (70-120[.t Ci/lxg,New England Nuclear) was added to confluency L929 cells for 90 min or 5 hr, respectively with 25, 50 and 100 tM of the test compounds 12]. The cells were washed repeatedly with isotonic saline, pH.7.2 and aliquots counted. Prostaglandin cylcooxygenase activity Mouse J774AI macrophages maintained in Dulbecco's modified Eagle's medium + 15% FCS + P/S. Cells (5 x 106) were incubated with agents (5 to 100 ].tM final concentration) and 3H-arachidonic acid (100 Ci/mol) for 60 min at 37C in a CO2 incubator. The reaction was terminated with 2N HCI, the mixture extracted 2 X with ether, and the organic layer evaporated.

[5] = system: IL-1 release from P388D1 macrophages; assay: as above; assay type: cell-based, mouse; details: 5 μM, over 18 hours, N=6

Molecule | Percent of Control (induced edema) ([1]; 16 mg/Kg X 2, I.P.) | 125I-IL-8 binding, Percent of Control ([2]; 50 μM, 5 Hours) | 125I-IL-8 binding, Percent of Control ([2]; 50 μM, 24 Hours) | reduction of IL-8 high affinity binding ([2]; 50 μM, 5 hr) | 125I-IL-8 binding, Percent of Control ([2]; 100 μM, 24 Hours) | reduction of IL-8 high affinity binding ([2]; 24 hr) | IC50 Elastase J774-A1 ([3]; 120 min) | reduction of edema ([1]; 16 mg/kg X 2) | IL-1 release, Percent of Control ([4]; 12.5 μM) | IL-1 release, Percent of Control ([4]; 25 μM) | IL-1 release, Percent of Control ([4]; 50 μM) | reduction of IL-1 release [4] [%] | reduction of IL-8 high affinity binding ([2]; at 5 hr and 24 hr) [%] | IL-1 release, Percent of Control [5] | Percent of Control (induced edema) ([1]; 8 mg/Kg X 2, I.P.) | IC50 ([3]; 60 min) [µM] | IC50 ([3]; 60 min, listed as #8) [µM] | IC50 ([3]; 120 min) [µM]
Pentosan sulfate [Pentosan polysulfate, reference compound] | 49+4% of Control | 79 + 6% of Control | 51 + 6% of Control | 21-23% | 47 + 8% of Control | greater than 40% | Increased | – | – | – | – | – | – | – | – | – | – | –
COc1c2cc(S(=O)(=O)[O-])cc1Cc1cc(S(=O)(=O)[O-])cc(c1OC)Cc1cc(S(=O)(=O)[O-])cc(c1OC)Cc1cc(S(=O)(=O)[O-])cc(c1OC)Cc1cc(S(=O)(=O)[O-])cc(c1OC)Cc1cc(S(=O)(=O)[O-])cc(c1OC)C2.[Na+].[Na+].[Na+].[Na+].[Na+].[Na+] [Compound 6] | 48+3% of Control | 54 + 5% of Control | 65 + 7% of Control | – | 55 + 4% of Control | – | Increased | greater than 40% | 6 + 2% of Control | 0% of Control | 0% of Control | > 95 | ~45 | 13 + 3% of Control | – | – | – | –
CC(=O)Oc1c2cc(S(=O)(=O)[O-])cc1Cc1cc(S(=O)(=O)[O-])cc(c1OC(C)=O)Cc1cc(S(=O)(=O)[O-])cc(c1OC(C)=O)Cc1cc(S(=O)(=O)[O-])cc(c1OC(C)=O)Cc1cc(S(=O)(=O)[O-])cc(c1OC(C)=O)Cc1cc(S(=O)(=O)[O-])cc(c1OC(C)=O)Cc1cc(S(=O)(=O)[O-])cc(c1OC(C)=O)Cc1cc(S(=O)(=O)[O-])cc(c1OC(C)=O)C2.[Na+].[Na+].[Na+].[Na+].[Na+].[Na+].[Na+].[Na+] [Compound 8] | 38+3% of Control | 79 + 4% of Control | 58 + 7% of Control | 21-23% | 51 + 6% of Control | greater than 40% | – | – | 66 + 4% of Control | 0% of Control | 0% of Control | > 95 | – | 75+ 5% of Control | 70 + 6% of Control | 10 to 30 | 24.5 | 350
